Reference: PubChem BioAssay AID1645866 (Buhrlage Lab, Dana-Farber Cancer Institute and Novartis …, 2021)
Activity calls are given as the source filed them.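 The calls were made as follows: active = in confirmatory dose-response testing, peak deubiquitinase inhibition of 30% or more; inactive = the rest.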

Molecular target: Ubiquitin carboxyl-terminal hydrolase 28 (Homo sapiens) (UniProt Q96RU2)
Assay: Ubiquitin-specific peptidase 28 DUB inhibitors, biochemical concentration-dependence assay, validation of primary screening hits (AID 1645866)
Settings: purified USP28, ubiquitin-rhodamine fluorescence, 30 min

Sequence of Ubiquitin carboxyl-terminal hydrolase 28 (Homo sapiens) (Q96RU2 whole entry, looked up): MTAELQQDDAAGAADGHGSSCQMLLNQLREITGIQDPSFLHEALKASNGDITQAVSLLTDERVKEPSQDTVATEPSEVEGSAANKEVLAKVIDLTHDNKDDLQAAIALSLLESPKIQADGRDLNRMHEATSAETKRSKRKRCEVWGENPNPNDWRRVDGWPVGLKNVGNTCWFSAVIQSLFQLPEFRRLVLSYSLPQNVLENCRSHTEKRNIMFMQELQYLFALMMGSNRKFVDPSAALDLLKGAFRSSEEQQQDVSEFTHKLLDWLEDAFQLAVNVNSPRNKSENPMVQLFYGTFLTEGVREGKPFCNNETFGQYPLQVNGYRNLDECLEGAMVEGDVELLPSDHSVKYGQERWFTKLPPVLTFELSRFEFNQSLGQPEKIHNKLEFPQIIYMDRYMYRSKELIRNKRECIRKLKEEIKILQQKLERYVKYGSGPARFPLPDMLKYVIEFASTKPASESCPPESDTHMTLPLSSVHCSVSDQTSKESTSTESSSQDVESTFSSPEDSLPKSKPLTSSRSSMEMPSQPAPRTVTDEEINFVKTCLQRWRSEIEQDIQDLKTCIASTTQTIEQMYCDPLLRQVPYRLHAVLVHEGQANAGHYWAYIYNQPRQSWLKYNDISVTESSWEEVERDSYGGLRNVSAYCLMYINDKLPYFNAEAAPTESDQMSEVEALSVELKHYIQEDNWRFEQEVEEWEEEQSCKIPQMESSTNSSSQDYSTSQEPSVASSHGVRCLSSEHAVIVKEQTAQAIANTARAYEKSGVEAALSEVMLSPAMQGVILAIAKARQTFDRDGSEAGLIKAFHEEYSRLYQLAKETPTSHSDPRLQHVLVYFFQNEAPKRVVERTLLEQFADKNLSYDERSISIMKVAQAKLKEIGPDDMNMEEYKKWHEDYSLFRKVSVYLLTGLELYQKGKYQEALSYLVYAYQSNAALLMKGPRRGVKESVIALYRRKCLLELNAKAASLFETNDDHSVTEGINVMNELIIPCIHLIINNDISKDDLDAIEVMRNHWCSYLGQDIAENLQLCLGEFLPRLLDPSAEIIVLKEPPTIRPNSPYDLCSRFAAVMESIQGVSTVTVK

Row | SMILES | IC50
1 | O=C(Cc1cccc2ccccc12)Nc1nc2ccc(F)cc2s1 | 36.9 µM
2 | COc1cccc(NC(=O)C2CCC(CNS(=O)(=O)c3ccc4c(c3)C(C)(C)C(=O)N4C)CC2)c1 (stereo not drawn) | 2.6 µM
3 | O=c1c2c(ccn1Cc1cc(F)ccc1F)ccn2Cc1cccnc1 | 7.21 µM
4 | CC(C)Cc1nc2oc3c(N(C)CCO)ncnc3c2c2c1CCC2 | > 50 µM (inactive)
5 | Cc1cc(C)cc(N(CCC(=O)Nc2ccc(N3CCOCC3)cc2)S(=O)(=O)c2ccc(Cl)cc2)c1 | 12.9 µM
6 | CCOc1ccc(NC(=O)c2cc(-c3ccccc3)c(N3CCOCC3)s2)cc1 | 14 µM
7 | COc1ccc(CNc2nn3c(-c4cncc(OC)c4)cnc3s2)cc1 | 2.61 µM
8 | O=C1N(Cc2ccc(F)cc2)CCN1c1ccc(C(F)(F)F)cn1 | 4.67 µM
9 | COc1ccccc1NS(=O)(=O)c1ccc2oc(SCC(=O)c3ccccc3)nc2c1 | > 50 µM (inactive)
10 | C[C@@H]1O[C@@H](O[C@H]2[C@H](O[C@H]3[C@H](O[C@H]4CC[C@@]5(C)[C@@H](CC[C@]6(C)[C@@H]5CC=C5[C@@H]7CC(C)(C)CC(=O)[C@]7(C)CC[C@]56C)[C@@]4(C)CO)O[C@H](C(=O)O)[C@@H](O)[C@@H]3O)OC[C@@H](O)[C@@H]2O)[C@H](O)[C@H](O)[C@H]1O | 48.4 µM
11 | O=C(Nc1ccc(Cl)cc1)Nc1cccn2ncnc12 | 11.9 µM
12 | CCCC[C@@H](C)/C=C(C)/C=C(\C)C(=O)NC1=C[C@](O)(/C=C/C=C/C=C/C(=O)NC2=C(O)CCC2=O)[C@@H]2O[C@@H]2C1=O | 2.56 µM
13 | CC(C)(C)c1cc(CCC(=O)Nc2c3c(nc4c2CCC4)CCCC3)cc(C(C)(C)C)c1O | > 50 µM (inactive)
14 | Cc1cc(C(=O)N2CCOC3(CC=CCN(CCc4ccccc4)C3=O)C2)n2nccc2n1 (stereo not drawn) | > 50 µM (inactive)
15 | CC1CCCCN1c1nc(F)c2c(c1F)S(=O)(=O)CCN2Cc1ccccc1 (stereo not drawn) | > 50 µM (inactive)
16 | Cc1nc(-c2ccc(-n3cc(C(=O)Nc4cccc(F)c4)c(C)n3)cc2)no1 | 42.5 µM
17 | Cc1ccc2[nH]c3c(=O)n(CC4CCCO4)cnc3c2c1 (stereo not drawn) | 18 µM
18 | O=C(Cn1nc2ccc(C(=O)NCc3ccccc3)cn2c1=O)Nc1ccc2c(c1)OCO2 | 33.6 µM
19 | CC(=O)c1cc2c(=O)c3c(C(=O)O)c(O)c(O)cc3oc2c(C(C)=O)c1-c1coc2cc(O)c(O)c(C(=O)O)c2c1=O | 1.77 µM
20 | CCOC(=O)c1ccc(NC(=O)c2cnc(N3CCOCC3)nc2)cc1 | > 50 µM (inactive)
21 | COc1cccc(NC(=O)C2Cc3ccccc3N2C(=O)c2ccccc2)c1 (stereo not drawn) | 22.6 µM
22 | Cc1nn(Cc2ccccc2)c(Cl)c1C(=O)NC1CCCc2ccccc21 (stereo not drawn) | > 50 µM (inactive)
23 | CCc1cc(=O)n(CC(=O)Nc2cc(C)ccc2OC)c(N2CCOCC2)n1 | 26.2 µM
24 | COc1ccc(NC(=O)c2ccc(-n3nnnc3SC)cc2)cc1Cl | 31.1 µM
25 | O=C(Cn1cnc2c(oc3ccccc32)c1=O)NCc1ccccc1Cl | 22.2 µM

Row | SMILES | IC50
26 | COc1ccc(-c2cc(-c3nnc4n3CCCCC4)n(-c3ccccc3)n2)cc1 | 20.1 µM
27 | COc1ccccc1CNC(=O)c1c(O)c2cnn(-c3cccc(C)c3)c2[nH]c1=O | 9.36 µM
28 | Cc1ccc2[nH]c(=O)c(-c3nc4ccc(C)cn4c3NCc3ccc(F)cc3)cc2c1 | 1.93 µM
29 | COc1ccc(CNC(=O)CN2C(=O)C(C)=C(c3ccc(C)cc3)S2(=O)=O)cc1 | > 50 µM (inactive)
30 | CC1CCN(C(=O)c2cn(-c3cc(N4CCC(C)CC4)ncn3)cn2)CC1 | 15.1 µM
31 | O=C(NCc1nc2ccccc2[nH]1)c1cccc(S(=O)(=O)N2CCc3ccccc32)c1 | 31.4 µM
32 | CC1CCN(c2cc(-n3cnc(C(=O)N4CCCC(C)C4)c3)ncn2)CC1 (stereo not drawn) | 10.1 µM
33 | Cc1c(OCC(=O)Nc2nc3ccccc3[nH]2)ccc2c3c(c(=O)oc12)CCC3 | 0.541 µM
34 | COc1ccc(CCNC(=O)CCCn2c(=O)c3ccccc3n(CC(=O)OCc3ccccc3)c2=O)cc1OC | 16 µM
35 | COc1cc2c(cc1OC)-c1cc(NCc3cc(OC)c(OC)c(OC)c3)nc(=O)n1CC2 | > 50 µM (inactive)
36 | CCOc1ccccc1NC(=O)Cn1ccn2nc(-c3ccc(OC)cc3)cc2c1=O | 16.5 µM
37 | N#Cc1cccc(NC(=O)Nc2cccn(Cc3ccccc3F)c2=O)c1 | 4.02 µM
38 | Cc1ccccc1Cc1nc(-c2ccc(=O)[nH]c2)no1 | 0.946 µM
39 | CCOc1ccc2c(c1)c(=O)c(C(=O)c1ccccc1)cn2CC(=O)Nc1ccccc1 | 9.83 µM
40 | CC(OC(=O)CNC(=O)c1ccc(Br)cc1)C(=O)Nc1ccc2c(c1)OCCO2 (stereo not drawn) | 25.8 µM
41 | Cc1cccc(NC(=O)c2noc3c2CCc2sccc2-3)n1 | 16.8 µM
42 | CNS(=O)(=O)c1ccc(CNC(=O)c2cc(-c3ccc(C)cc3)no2)cc1 | 21 µM
43 | O=C(Nc1ccc(F)cc1F)c1csc(-c2ccccc2)n1 | 24.4 µM
44 | COc1ccc(-c2cc(C(=O)N3CCN(c4ccc([N+](=O)[O-])cc4)CC3)[nH]n2)cc1 | > 50 µM (inactive)
45 | Cc1nc(N2CCCC2)ncc1C(=O)Nc1ccc(F)c(F)c1 | 32.9 µM
46 | Cc1ccc(NC(=O)CNC(=O)c2cc3ccccc3o2)cc1 | 21.2 µM
47 | O=C(CSc1cn(Cc2ccccc2)c2ccccc12)Nc1ccc2c(c1)OCCO2 | 17.2 µM
48 | CC(Sc1n[nH]c2nc3ccccc3n12)C(=O)Nc1ccc2c(c1)OCCO2 (stereo not drawn) | 37.5 µM
49 | COCCNC(=O)c1ccn(-c2ccc3ccc(-c4ccncc4)cn23)n1 | > 50 µM (inactive)
50 | CCc1ccc(C(C)NC(=O)C2CCN(c3ccc4nncn4n3)CC2)cc1 (stereo not drawn) | 16.4 µM

Row | SMILES | IC50
51 | COc1ccc(/C=C/C(=O)Nc2cccc(S(=O)(=O)Nc3ccccc3Cl)c2)c(OC)c1 | 21.4 µM
52 | O=C(CN1C(=O)c2ccccc2Sc2ccc(C(=O)N3CCCC3)cc21)Nc1ccccc1Cl | 29.6 µM
53 | Cn1c(=O)cc(SCC(=O)NC2CCN(Cc3ccccc3)CC2)c2ccc(Cl)cc21 | 31.6 µM
54 | CC(=O)Nc1ccc(-n2cnc(C(=O)NC(C)c3ccccc3)c2)nc1 (stereo not drawn) | 20.5 µM
55 | O=C(NCc1ccccc1Cl)C1CCCN(c2nc3ccsc3c(=O)s2)C1 (stereo not drawn) | 3.22 µM
56 | COc1cccc(N2CCN(C(=O)Nc3ccc4c(c3)NC(=O)CO4)CC2)c1 | 19.4 µM
57 | Cc1cccc(C)c1NC(=O)Cn1c(=O)n(CCCCC(=O)NCc2ccc3c(c2)OCO3)c(=O)c2ccccc21 | 1.88 µM
58 | Cc1cc(C(=O)NC2(O)C(=O)c3ccccc3C2=O)n(C)n1 | 19 µM
59 | COc1ccc(NC(=O)COc2cc(CSc3ccccc3)ncc2OC)cc1 | > 50 µM (inactive)
60 | O=S(=O)(c1cccc(F)c1)N1CCc2nc3ccccc3n2CC1 | 10.8 µM
61 | N#Cc1ccc(NC(=O)Nc2cccn(Cc3ccccc3Br)c2=O)cc1 | 4.34 µM
62 | CNC(=O)CC1NC(=O)c2csc(n2)-c2ccc(-c3nc(C4=NC(C(=O)N5CCCC5C(N)=O)CO4)cs3)nc2-c2csc(n2)-c2csc(n2)C(C(O)c2ccccc2)NC(=O)CNC(=O)c2nc(sc2COC)C(C(C)C)NC(=O)c2nc1sc2C (stereo not drawn) | 11.4 µM
63 | CCn1cc2c(n1)c(=O)n(Cc1ccccc1)c(=O)n2CC(=O)Nc1ccc(OC)cc1 | 10.5 µM
64 | CC(C)N(C(=O)Cn1c(=O)[nH]c2ccccc21)c1ccccc1 | > 50 µM (inactive)
65 | Cc1ccc(-c2nc(NC(=O)Nc3ccc(Cl)cc3)sc2C)cc1 | 32.9 µM
66 | O=C(Nc1cccc2ccccc12)N1CCC(c2nc3c(nnn3Cc3ccc(F)cc3)c(=O)[nH]2)CC1 | 36.1 µM
67 | COC1/C=C/OC2(C)Oc3c(C)c(O)c4c(c3C2=O)C(=O)C=C(NC(=O)/C(C)=C\C=C\C(C)C(O)C(C)C(O)C(C)C(OC(C)=O)C1C)C4=O (stereo not drawn) | 38 µM
68 | CCOC(=O)c1cnn(-c2ccc(C(=O)Nc3ccc(C)c(Cl)c3)cc2)c1N | 5.47 µM
69 | COC(=O)c1cc2c(ccn2C)n1CC(=O)NC1CCCC1 | > 50 µM (inactive)
70 | Cc1nn(Cc2ccccc2)c(C)c1C(=O)NC1CCCc2ccccc21 (stereo not drawn) | 5.14 µM
71 | Cc1nc(SCC#N)c2oc3ccccc3c2n1 | 40 µM
72 | CCOc1ccc(NC(=O)Cn2c(=O)n(CCC(=O)NCc3ccccc3OC)c(=O)c3ccccc32)cc1 | 4.01 µM
73 | CCn1ccc2c(cc(C(=O)Nc3cc(F)ccc3F)n2C)c1=O | 2.22 µM
74 | Cc1nn(CC(=O)Nc2ccc(Br)c3cccnc23)c(=O)c2ccccc12 | 21.5 µM
75 | O=[N+]([O-])c1ccc(NCc2ccc(-c3cccs3)s2)nc1 | 2.19 µM

Row | SMILES | IC50
76 | COc1ccc(C(=O)Nc2ccccc2C(=O)NCc2ccccc2)cc1 | 37.6 µM
77 | N#Cc1ccccc1COC(=O)c1ccc2ccccc2n1 | 6.94 µM
78 | Cc1cn[nH]c1C1COCCN1C(=O)c1ccc2ncccc2c1 (stereo not drawn) | > 50 µM (inactive)
79 | O=C(/C=C/c1ccccc1)N1CCN(C2=NS(=O)(=O)c3ccccc32)CC1 | > 50 µM (inactive)
80 | CCOC(=O)c1c(C)nc2n(Cc3ccccc3)c3ccccc3n12 | 21.7 µM
81 | CCOc1ccc(-c2noc(-c3nn(-c4cccc(OC)c4)ccc3=O)n2)cc1 | 4.44 µM
82 | CCCCc1nc2sc3c(SCC(=O)Nc4cccc(C)c4)ncnc3c2c2c1CCC2 | 14 µM
83 | O=C(CNc1ccc(F)c(Cl)c1)Nc1ccc2c(c1)OCCO2 | 15.6 µM
84 | O=C(CNC(=O)c1cccc(F)c1)Nc1nc2ccccc2[nH]1 | 24.5 µM
85 | Cc1cc(O)cc2cc3c(c(O)c12)C(=O)CCC3O (stereo not drawn) | > 50 µM (inactive)
86 | Cc1oc(C2CC2)cc1C(=O)N1CCC2(CC1)CC1(CO2)Nc2ccccc2-n2cccc21 (stereo not drawn) | > 50 µM (inactive)
87 | Cc1cc(C)cc(-n2cnc3cc(C(=O)NCCC4=CCCCC4)ccc32)c1 | 2.01 µM
88 | Cc1ccccc1NC(=O)Cn1cc(-c2nc(C3CC3)no2)ccc1=O | > 50 µM (inactive)
89 | O=C(COC(=O)c1cc(Cl)ccc1O)Nc1ccc2c(c1)OCCO2 | 24.3 µM
90 | O=[N+]([O-])c1cccc(-c2noc(CSc3ccccc3)n2)c1 | 3.72 µM
91 | COc1cccc(NC(=O)Cc2sc(Nc3cc(C)cc(C)c3)nc2O)c1 | 18.1 µM
92 | Cc1ccc(-c2noc(-c3nnc(SCC(=O)NC4CCCC4)n3C)n2)cc1 | inactive
93 | O=C(/C=C/c1ccc(F)cc1)N1CCC(Cc2ccccc2)CC1 | 47.4 µM
94 | CCN(Cc1ccccc1)S(=O)(=O)c1ccc(C(=O)Nc2ccc3c(c2)OCCO3)cc1 | 5.98 µM
95 | CC(=O)c1ccc(NC(=O)CSc2nc(-c3ccccc3)nc3c2COC(C)(C)C3)cc1 | 4.07 µM
96 | COc1ccc(C(=O)Nc2sc3c(c2C(=O)NCc2cccnc2)CCCC3)cc1 | 11.8 µM
97 | CC1(C)OC2=C(C(=O)c3cc(O)cc(O)c3C2=O)c2cc(CO)c(O)cc21 | 18.5 µM
98 | Cc1cc(C(F)(F)F)n2nc(C3CCN(C(=O)c4cnn(C)c4C)C3)cc2n1 (stereo not drawn) | > 50 µM (inactive)
